Experimental data as given in patent publication US10065990B2, “Cyclic peptide compound, and preparation method, pharmaceutical composition and use thereof” (HANGZHOU GUANYU BIO-MEDICAL CO., LTD, priority 2013, dated 2018).
Like-named read-outs stand apart in the source and are kept apart here.

How the values were obtained:
HDAC7 = molecular target: T1, HDAC7 (Homo sapiens, UniProt Q8WUI4); assay: HDAC biochemical activity measurement (fluorescent substrate deacetylation);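 further: fluorogenic deacetylation assay using acetyl-lysine substrate at 20 µM, enzyme and compound incubated 30 min at 37 °C, then developer added, fluorescence read at 360/460 nm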; settings: HDAC7; 37° C. 30 minutes
T1 sequence (Q8WUI4 1-952): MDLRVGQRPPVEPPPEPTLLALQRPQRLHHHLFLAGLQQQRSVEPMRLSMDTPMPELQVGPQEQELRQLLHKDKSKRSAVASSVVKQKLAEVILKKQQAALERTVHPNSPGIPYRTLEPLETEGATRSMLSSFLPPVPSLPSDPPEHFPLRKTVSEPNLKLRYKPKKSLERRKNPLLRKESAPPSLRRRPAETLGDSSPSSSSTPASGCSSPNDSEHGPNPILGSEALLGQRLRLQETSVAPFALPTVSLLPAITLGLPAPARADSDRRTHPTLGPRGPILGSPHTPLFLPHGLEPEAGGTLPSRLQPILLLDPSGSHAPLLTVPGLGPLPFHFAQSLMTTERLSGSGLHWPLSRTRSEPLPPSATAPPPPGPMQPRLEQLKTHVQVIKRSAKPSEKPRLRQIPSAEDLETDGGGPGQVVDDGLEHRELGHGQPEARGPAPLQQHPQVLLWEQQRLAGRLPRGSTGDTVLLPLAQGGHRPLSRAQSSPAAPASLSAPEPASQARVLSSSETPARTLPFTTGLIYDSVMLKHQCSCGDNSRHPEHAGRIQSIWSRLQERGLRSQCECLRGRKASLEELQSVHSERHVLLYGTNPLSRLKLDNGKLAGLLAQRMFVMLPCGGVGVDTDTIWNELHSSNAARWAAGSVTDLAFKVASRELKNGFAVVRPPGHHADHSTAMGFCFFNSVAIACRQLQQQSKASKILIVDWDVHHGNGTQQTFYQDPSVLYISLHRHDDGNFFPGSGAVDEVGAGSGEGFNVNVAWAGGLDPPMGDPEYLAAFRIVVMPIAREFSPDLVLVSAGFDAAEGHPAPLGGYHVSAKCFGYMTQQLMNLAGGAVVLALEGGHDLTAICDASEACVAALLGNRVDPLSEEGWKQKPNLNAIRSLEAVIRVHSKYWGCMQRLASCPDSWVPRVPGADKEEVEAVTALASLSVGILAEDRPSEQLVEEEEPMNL

[1] = system: A549 (human lung cancer cells); assay: MTT cancer cell growth inhibition; assay type: cell-based; settings: MTT, 72 hours incubation, read-out: GI50 A54
Excerpt: (§1) MTT assay principle is yellow MTT can penetrate membrane into the cell, succinic dehydrogenase of the mitochondria in living cells can make exogenous MTT reduction of insoluble in water of blue-violet acicular formazan for crystallization and deposition in the cell, crystallization can be dissolved dimethyl sulfoxide (DMSO) solution, detected its absorbance at 490 nm/570 nm wavelength by enzyme-linked immunosorbent assay, which can reflect the number of cells.
(§2) Using DMEM+10% FBS culture medium or using 1640+10% FBS culture, respectively.
(§3) a) Cells were seeded in 96-well plates with the inoculation of 1500/well, 190 μl/hole, 37° C., 5% of CO2 incubator overnight;
(§4) b) The next day each well was added 10 μl of different drugs. The final concentration of drug was 10^−5˜10^−10M, three parallel holes; 37° C., 5% CO2 culture incubator for 72 hours incubation;
(§5) c) Per well was added 20 μl 5 mg/ml of MTT, 37° C., 5% CO2 culture incubator for 4 hours incubation;
(§6) d) The supernatant was discarded. Each well was added 100 μl of DMSO and oscillation;
(§7) e) 570 nm readings. Calculate cell viability. GI50 calculation based on the results.

[2] = system: BGC-823 (human gastric cancer cells); assay: MTT cancer cell growth inhibition; assay type: cell-based; settings: MTT, 72 hours incubation, read-out: GI50 BG
Excerpt: as §1, §2, §3, §4, §5, §6, §7

[3] = system: Bel-7402 (human hepatoma cells); assay: MTT cancer cell growth inhibition; assay type: cell-based; settings: MTT, 72 hours incubation, Bel-7402 cells, read-out: GI50 Bel-7402
Excerpt: as §1, §2, §3, §4, §5, §6, §7

[4] = system: DU145 (human prostate cancer cells); assay: MTT cancer cell growth inhibition; assay type: cell-based; settings: MTT, 72 hours incubation, read-out: GI50 Du1
Excerpt: as §1, §2, §3, §4, §5, §6, §7

[5] = system: H1975 (non-small cell lung adenocarcinoma); assay: MTT cancer cell growth inhibition; assay type: cell-based; settings: MTT, 72 hours incubation, H1975 cells, read-out: GI50 H1975
Excerpt: as §1, §2, §3, §4, §5, §6, §7

[6] = system: HCC827 (human non-small cell lung cancer cells); assay: MTT cancer cell growth inhibition; assay type: cell-based; settings: MTT, 72 hours incubation, HCC827 cells, read-out: GI50 HCC827
Excerpt: as §1, §2, §3, §4, §5, §6, §7

[7] = system: HT1080 (human fibrosarcoma cells); assay: MTT cancer cell growth inhibition; assay type: cell-based; settings: MTT, 72 hours incubation, read-out: GI50 HT1
Excerpt: as §1, §2, §3, §4, §5, §6, §7

[8] = system: Hela (human cervical cancer cells); assay: MTT cancer cell growth inhibition; assay type: cell-based; settings: MTT, 72 hours incubation, read-out: GI50 Hela
Excerpt: as §1, §2, §3, §4, §5, §6, §7

[9] = system: Huh-7 (human hepatoma cells); assay: MTT cancer cell growth inhibition; assay type: cell-based; settings: MTT, 72 hours incubation, Huh-7 cells, read-out: GI50 Huh-7
Excerpt: as §1, §2, §3, §4, §5, §6, §7

[10] = system: K562 (human leukemia cells); assay: MTT cancer cell growth inhibition; assay type: cell-based; settings: MTT, 72 hours incubation, K562 cells, read-out: GI50 K562
Excerpt: as §1, §2, §3, §4, §5, §6, §7

[11] = system: KBM-5 (human chronic myelogenous leukemia); assay: MTT cancer cell growth inhibition; assay type: cell-based; settings: MTT, 72 hours incubation, KBM-5 cells, read-out: GI50 KBM-5
Excerpt: as §1, §2, §3, §4, §5, §6, §7

[12] = system: KBM5-T315I (human chronic myelogenous leukemia); assay: MTT cancer cell growth inhibition; assay type: cell-based; settings: MTT, 72 hours incubation, KBM5-T315I cells, read-out: GI50 KBM5-T315I
Excerpt: as §1, §2, §3, §4, §5, §6, §7

[13] = system: MCF-7 (human breast cancer cells); assay: MTT cancer cell growth inhibition; assay type: cell-based; settings: 72 hours incubation, read-out: GI50 MCF
Excerpt: as §1, §2, §3, §4, §5, §6, §7

[14] = system: MDA-MB-231 (breast cancer cells); assay: MTT cancer cell growth inhibition; assay type: cell-based
Excerpt: as §1, §2, §3, §4, §5, §6, §7

[15] = system: MOLT-4 (human acute lymphoblastic leukemia cells); assay: MTT cancer cell growth inhibition; assay type: cell-based; settings: MTT, 72 hours incubation, read-out: GI50 Mol
Excerpt: as §1, §2, §3, §4, §5, §6, §7

[16] = system: N-87 (human gastric cancer cells); assay: MTT cancer cell growth inhibition; assay type: cell-based; settings: MTT, 72 hours incubation, N-87 cells, read-out: GI50 N-87
Excerpt: as §1, §2, §3, §4, §5, §6, §7

[17] = system: PANC-1 (Pac-1, human pancreatic cancer cells); assay: MTT cancer cell growth inhibition; assay type: cell-based; settings: MTT, 72 hours incubation, read-out: GI50 PAN
Excerpt: as §1, §2, §3, §4, §5, §6, §7

[18] = system: SGC-7901 (human gastric cancer cells); assay: MTT cancer cell growth inhibition; assay type: cell-based; settings: MTT, 72 hours incubation, SGC-7901 cells, read-out: GI50 SGC-7901
Excerpt: as §1, §2, §3, §4, §5, §6, §7

[19] = system: U937 (human leukemia cells); assay: MTT cancer cell growth inhibition; assay type: cell-based; settings: MTT, 72 hours incubation, read-out: GI50 U93
Excerpt: as §1, §2, §3, §4, §5, §6, §7

[20] = system: lncap (prostate cancer cells); assay: MTT cancer cell growth inhibition; assay type: cell-based; settings: MTT, 72 hours incubation, read-out: GI50 lnca
Excerpt: as §1, §2, §3, §4, §5, §6, §7

[21] = Homo sapiens, MDA-MB-231, 72 h, read-out: GI50 MDA-MB-231, MTT, 72 hours incubation, MDA-MB-231 cells

Compound | IC50 HDAC7 (HDAC7) | GI50 ([1]; Homo sapiens, A549, 72 h) | GI50 ([2]; Homo sapiens, BGC-823, 72 h) | GI50 ([3]; Homo sapiens, Bel-7402, 72 h) | GI50 ([4]; Homo sapiens, DU-145, 72 h) | GI50 ([5]; Homo sapiens, NCI-H1975, 72 h) | GI50 ([6]; Homo sapiens, HCC827, 72 h) | GI50 ([7]; Homo sapiens, HT-1080, 72 h) | GI50 ([8]; Homo sapiens, HeLa, 72 h) | GI50 ([9]; Homo sapiens, Huh-7, 72 h) | GI50 ([10]; Homo sapiens, K562, 72 h) | GI50 ([11]; Homo sapiens, KBM5, 72 h) | GI50 ([12]; Homo sapiens, 72 h) | GI50 ([13]; Homo sapiens, MCF7, 72 h) | GI50 [14, 21] | GI50 ([15]; Homo sapiens, MOLT-4, 72 h) | GI50 ([16]; Homo sapiens, 72 h) | GI50 ([17]; Homo sapiens, PANC-1, 72 h) | GI50 ([18]; Homo sapiens, SGC-7901, 72 h) | GI50 ([19]; Homo sapiens, U-937, 72 h) | other results
C=C1NC(=O)c2cc(F)cc(n2)CNC(=O)C[C@@H](/C=C/CCS)OC(=O)[C@H](C(C)C)NC1=O [Compound 133] | no activity | – | – | – | – | – | – | – | – | – | – | – | – | – | – | – | – | – | – | – | GI50 [1]: 0.05 µM; GI50 [2]: 0.05 µM; GI50 [3]: 0.032 µM; GI50 [4]: 0.07 µM; GI50 [5]: 0.031 µM; GI50 [6]: 0.036 µM; GI50 [7]: 0.08 µM; GI50 [8]: 0.02 µM; GI50 [9]: 0.033 µM; GI50 [10]: 0.016 µM; GI50 [11]: 0.036 µM; GI50 [12]: 0.016 µM; GI50 [13]: 0.07 µM; GI50 ([14]; read-out: GI50 MDA-MB-231, MTT, 72 hours incubation, MDA-MB-231 cells): 0.035 µM; GI50 [15]: 0.08 µM; GI50 [16]: 0.066 µM; GI50 [17]: 0.05 µM; GI50 [18]: 0.035 µM; GI50 [19]: 0.05 µM; GI50 [20]: 0.08 µM
C=C1NC(=O)c2ccc(F)c(n2)CNC(=O)C[C@@H](/C=C/CCS)OC(=O)[C@H](C(C)C)NC1=O [Compound 134] | no activity | 0.03 µM | 0.17 µM | 0.029 µM | 0.05 µM | 0.054 µM | 0.035 µM | 0.07 µM | 0.04 µM | 0.092 µM | 0.038 µM | 0.031 µM | 0.061 µM | 0.08 µM | 0.063 µM | 0.05 µM | 0.041 µM | 0.13 µM | 0.027 µM | 0.05 µM | GI50 ([20]; Homo sapiens, LNCaP, 72 h): 0.1 µM
CC(C)=C1NC(=O)c2cccc(n2)CNC(=O)C[C@@H](/C=C/CCS)OC(=O)[C@H](C(C)C)NC1=O [Compound 135] | no activity | 0.09 µM | 0.05 µM | 0.039 µM | 0.05 µM | 0.079 µM | 0.093 µM | 0.09 µM | 0.07 µM | 0.087 µM | 0.033 µM | 0.011 µM | 0.051 µM | 0.05 µM | 0.041 µM | 0.09 µM | 0.026 µM | 0.05 µM | 0.044 µM | 0.09 µM | GI50 ([20]; Homo sapiens, LNCaP, 72 h): 0.07 µM
